Marks after values point to notes of the source that are not given here.
What was measured:
[1] = molecular target: T1, human NaV1.1 channel (SCN1A, HEK293T cells) (Homo sapiens, UniProt P35498); experiment: Planar patch-clamp, inhibition of peak sodium current (IC50 protocol); type: cell-based; details: mean ± SEM
T1 construct: expressed in transfected cells
Protocol: (§1) HEK293T cells stably expressing SCN1A or SCN2A and CHO cells stably expressing SCN8A or SCN9A were maintained as previously described ([Richards et al., 2018]; [Milligan et al., 2022]).
(§2) Patch-clamp recordings were made using a Patchliner® (Nanion Technologies, Munich, Germany) in the whole-cell configuration as previously described ([Richards et al., 2018]; [Milligan et al., 2022]). Briefly, cells were prepared in suspension at a density of 1 × 10^6-5 × 10^7 cells/mL. The external recording solution comprised (in mM): 140 NaCl, 4 KCl, 1 MgCl2, 2 CaCl2, 5 D-glucose, 10 HEPES, pH 7.4 with NaOH, ∼295 mOsm. The internal recording solution comprised (in mM): 50 CsCl, 60 CsF, 10 NaCl, 20 EGTA, 10 HEPES, pH 7.2 with CsOH, ∼285 mOsm. Medium single-hole planar NPC-16 chips with an average resistance of ∼2.5 MΩ were used. Chip and whole-cell capacitance were fully compensated, and 50% series resistance compensation applied. Recordings were acquired at 50 kHz with the low pass filter set to 10 kHz in PATCHMASTER (HEKA Instruments, NY, United States) and performed at 27°C. Offline analysis was performed using Microsoft Excel, MatLab R2019a (MathWorks) and GraphPad Prism 8 (Molecular Devices).
(§3) To determine half-maximal inhibitory concentrations (IC50), cells were held at −80 mV, stepped to −120 mV for 200 ms followed by 50 ms test depolarization to 0 mV every 2 s for 30 s in the presence of vehicle control (DMSO). The cells were then exposed to an individual phytocannabinoid (CBD, CBGA, CBDVA, CBG, CBCA or CBC) at concentrations between 0.1 and 100 μM, sequentially for 5 min. Currents for individual cells were averaged over 24 s periods directly before application and following a 5 min exposure of compound. Leak subtraction was applied before normalization of current amplitude. Normalized mean data were fit to the Hill equation.

[2] = molecular target: T2, human NaV1.2 channel (SCN2A, HEK293T cells) (Homo sapiens, UniProt Q99250); experiment: as above; type: cell-based; details: mean ± SEM
T2 construct: expressed in transfected cells
Protocol: as §1, §2, §3

[3] = molecular target: T3, human NaV1.6 channel (SCN8A, CHO cells) (Homo sapiens, UniProt Q9UQD0); experiment: as above; type: cell-based; details: mean ± SEM
T3 construct: expressed in transfected cells
Protocol: as §1, §2, §3

[4] = molecular target: T4, human NaV1.7 channel (SCN9A, CHO cells) (Homo sapiens, UniProt Q15858); experiment: as above; type: cell-based; details: mean ± SEM
T4 construct: expressed in transfected cells
Protocol: as §1, §2, §3

[5] = molecular target: T4, human NaV1.7 channel (SCN9A, CHO cells); experiment: Planar patch-clamp, biophysical properties (activation, SSFI, recovery from SSFI); type: cell-based; details: change vs vehicle DMSO at IC50 concentration (CBD 11.9 μM, CBGA 16.4 μM, CBDVA 60 μM)
Protocol: as §1, §2
Voltage protocols were used, as previously described ([Richards et al., 2018]). Briefly, to study the voltage-dependence of activation, cells were held at −120 mV and depolarized to test potentials, in 5 mV increments, between −120 mV and +50 mV for 100 ms. To study steady-state fast inactivation, cells were held at conditioning pre-pulse potentials ranging from −120 mV to +30 mV in 5 mV increments from a holding potential of −120 mV and a test pulse at 5 mV for 20 ms. Recovery from fast inactivation was studied by pre-pulsing the cells to 0 mV from a holding potential of −120 mV for 50 ms, to fully inactivate channels. The voltage was then stepped back to the holding potential for variable interpulse intervals (ipi from 0 to 39 ms in 3 ms increments). To test channel availability, the voltage was stepped to 0 mV for 50 ms.
To examine the voltage-dependence of activation, normalized current-voltage (I-V) relationships were converted to conductance (G) using the following equation: G = I/(V−V r ) where Vr is the reversal potential for Na^+. The voltage-dependence of conductance and availability were normalized and fitted to a Boltzmann equation: G = 1/(1 + exp [(V−V 0.5)/a]), where a is the slope of the half-maximum, V is the potential of the given pulse, and V 0.5 is the potential for the half-maximal activation/inactivation. The time course of inactivation was fitted to a single exponential function I/Imax = I0+A*exp (-t-t0/τ)+C, where I0 is the non-inactivating component, Imax is the peak current, t is time, and A is the component for the time constant τ. Time constants were plotted against voltage and the data fitted with a decaying exponential equation Y = span*exp (−K*x)+plateau, where span is the starting point of the curve, K is the decay factor, plateau is the value the curve decays to, and x is time. To measure recovery from inactivation, normalized currents were plotted against ipi and data fitted with equation I/I max = 1-exp/(rc + x), where I max is maximal current; rc recovery rate constant; x is time. Peak current (I) was plotted as fractional recovery against the recovery period by normalizing to the maximum current (Imax) during the conditioning potentials.

[6] = system: NaV1.1, NaV1.2, NaV1.6 and NaV1.7 channels; experiment: Planar patch-clamp, IC50 values summarised across the four isoforms; type: cell-based, human; details: range over NaV1.1, NaV1.2, NaV1.6, NaV1.7; read-out: IC50 values determined here (range over isoforms)
Protocol: as §1
as §2, with “Devices). […]” for “Devices).”

[7] = system: Scn1a+/− mouse model of DS; design: method as in Anderson et al., 2021a; Anderson et al., 2021b; details: Scn1a+/− mice, ref Anderson et al., 2021a, 2021b; cited from earlier work
[8] = system: Scn1a+/− mouse model of DS; design: method as in Anderson et al., 2021b; details: monotherapy, ref Anderson et al., 2021b; cited from earlier work
[9] = system: 6-Hz acute seizure model; design: method as in Anderson et al., 2021b; details: monotherapy; ref Anderson et al., 2021b; cited from earlier work

T4 sequence (Q15858 whole entry): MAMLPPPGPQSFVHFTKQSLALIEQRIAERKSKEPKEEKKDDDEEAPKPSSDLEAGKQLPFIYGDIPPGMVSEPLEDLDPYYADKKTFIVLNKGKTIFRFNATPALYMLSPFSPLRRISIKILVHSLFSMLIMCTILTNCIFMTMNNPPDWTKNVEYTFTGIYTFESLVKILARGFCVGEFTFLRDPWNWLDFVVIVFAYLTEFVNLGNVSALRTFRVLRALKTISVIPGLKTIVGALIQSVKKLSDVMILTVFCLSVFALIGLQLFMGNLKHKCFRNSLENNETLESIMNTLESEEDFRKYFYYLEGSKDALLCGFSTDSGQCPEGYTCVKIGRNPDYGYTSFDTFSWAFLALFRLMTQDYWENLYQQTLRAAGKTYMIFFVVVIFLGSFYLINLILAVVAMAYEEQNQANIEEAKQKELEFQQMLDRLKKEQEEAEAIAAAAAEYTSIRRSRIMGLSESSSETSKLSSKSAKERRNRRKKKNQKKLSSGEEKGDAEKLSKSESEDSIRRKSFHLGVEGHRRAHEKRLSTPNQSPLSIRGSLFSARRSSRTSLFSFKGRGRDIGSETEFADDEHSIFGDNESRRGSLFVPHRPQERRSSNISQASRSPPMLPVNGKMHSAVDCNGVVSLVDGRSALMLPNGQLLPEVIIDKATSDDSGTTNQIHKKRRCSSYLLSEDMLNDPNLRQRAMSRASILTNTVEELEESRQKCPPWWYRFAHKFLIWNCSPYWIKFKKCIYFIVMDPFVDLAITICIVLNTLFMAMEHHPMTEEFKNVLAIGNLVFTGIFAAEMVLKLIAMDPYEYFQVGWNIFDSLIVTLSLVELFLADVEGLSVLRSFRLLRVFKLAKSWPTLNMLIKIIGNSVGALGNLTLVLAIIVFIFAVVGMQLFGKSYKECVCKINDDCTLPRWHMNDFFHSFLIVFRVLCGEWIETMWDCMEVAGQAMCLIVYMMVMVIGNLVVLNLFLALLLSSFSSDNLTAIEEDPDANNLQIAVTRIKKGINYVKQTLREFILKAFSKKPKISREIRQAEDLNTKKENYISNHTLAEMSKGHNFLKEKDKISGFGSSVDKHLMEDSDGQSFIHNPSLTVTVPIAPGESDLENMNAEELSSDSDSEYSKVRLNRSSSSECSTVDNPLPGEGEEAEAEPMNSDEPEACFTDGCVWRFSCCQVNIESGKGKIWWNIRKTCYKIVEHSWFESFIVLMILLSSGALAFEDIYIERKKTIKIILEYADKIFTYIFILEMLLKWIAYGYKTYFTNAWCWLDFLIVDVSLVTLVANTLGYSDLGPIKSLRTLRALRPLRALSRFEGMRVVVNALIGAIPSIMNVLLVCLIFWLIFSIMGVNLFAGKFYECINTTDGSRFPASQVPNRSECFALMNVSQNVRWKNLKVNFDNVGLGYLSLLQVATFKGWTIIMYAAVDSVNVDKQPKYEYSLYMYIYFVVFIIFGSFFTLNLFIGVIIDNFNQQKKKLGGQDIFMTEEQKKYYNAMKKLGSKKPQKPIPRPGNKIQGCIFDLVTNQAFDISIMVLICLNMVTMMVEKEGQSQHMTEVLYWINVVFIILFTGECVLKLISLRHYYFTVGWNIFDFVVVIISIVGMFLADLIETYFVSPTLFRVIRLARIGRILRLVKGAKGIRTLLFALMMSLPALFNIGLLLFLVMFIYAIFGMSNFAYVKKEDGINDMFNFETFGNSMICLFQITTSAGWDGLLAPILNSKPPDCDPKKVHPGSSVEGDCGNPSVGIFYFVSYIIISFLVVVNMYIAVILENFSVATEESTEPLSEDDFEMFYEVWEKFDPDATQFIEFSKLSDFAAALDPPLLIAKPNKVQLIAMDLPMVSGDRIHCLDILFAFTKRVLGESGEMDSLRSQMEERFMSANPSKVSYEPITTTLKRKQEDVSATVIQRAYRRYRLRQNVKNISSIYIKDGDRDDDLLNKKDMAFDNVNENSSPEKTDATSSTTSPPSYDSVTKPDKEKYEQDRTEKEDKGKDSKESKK
T2 sequence (Q99250 whole entry): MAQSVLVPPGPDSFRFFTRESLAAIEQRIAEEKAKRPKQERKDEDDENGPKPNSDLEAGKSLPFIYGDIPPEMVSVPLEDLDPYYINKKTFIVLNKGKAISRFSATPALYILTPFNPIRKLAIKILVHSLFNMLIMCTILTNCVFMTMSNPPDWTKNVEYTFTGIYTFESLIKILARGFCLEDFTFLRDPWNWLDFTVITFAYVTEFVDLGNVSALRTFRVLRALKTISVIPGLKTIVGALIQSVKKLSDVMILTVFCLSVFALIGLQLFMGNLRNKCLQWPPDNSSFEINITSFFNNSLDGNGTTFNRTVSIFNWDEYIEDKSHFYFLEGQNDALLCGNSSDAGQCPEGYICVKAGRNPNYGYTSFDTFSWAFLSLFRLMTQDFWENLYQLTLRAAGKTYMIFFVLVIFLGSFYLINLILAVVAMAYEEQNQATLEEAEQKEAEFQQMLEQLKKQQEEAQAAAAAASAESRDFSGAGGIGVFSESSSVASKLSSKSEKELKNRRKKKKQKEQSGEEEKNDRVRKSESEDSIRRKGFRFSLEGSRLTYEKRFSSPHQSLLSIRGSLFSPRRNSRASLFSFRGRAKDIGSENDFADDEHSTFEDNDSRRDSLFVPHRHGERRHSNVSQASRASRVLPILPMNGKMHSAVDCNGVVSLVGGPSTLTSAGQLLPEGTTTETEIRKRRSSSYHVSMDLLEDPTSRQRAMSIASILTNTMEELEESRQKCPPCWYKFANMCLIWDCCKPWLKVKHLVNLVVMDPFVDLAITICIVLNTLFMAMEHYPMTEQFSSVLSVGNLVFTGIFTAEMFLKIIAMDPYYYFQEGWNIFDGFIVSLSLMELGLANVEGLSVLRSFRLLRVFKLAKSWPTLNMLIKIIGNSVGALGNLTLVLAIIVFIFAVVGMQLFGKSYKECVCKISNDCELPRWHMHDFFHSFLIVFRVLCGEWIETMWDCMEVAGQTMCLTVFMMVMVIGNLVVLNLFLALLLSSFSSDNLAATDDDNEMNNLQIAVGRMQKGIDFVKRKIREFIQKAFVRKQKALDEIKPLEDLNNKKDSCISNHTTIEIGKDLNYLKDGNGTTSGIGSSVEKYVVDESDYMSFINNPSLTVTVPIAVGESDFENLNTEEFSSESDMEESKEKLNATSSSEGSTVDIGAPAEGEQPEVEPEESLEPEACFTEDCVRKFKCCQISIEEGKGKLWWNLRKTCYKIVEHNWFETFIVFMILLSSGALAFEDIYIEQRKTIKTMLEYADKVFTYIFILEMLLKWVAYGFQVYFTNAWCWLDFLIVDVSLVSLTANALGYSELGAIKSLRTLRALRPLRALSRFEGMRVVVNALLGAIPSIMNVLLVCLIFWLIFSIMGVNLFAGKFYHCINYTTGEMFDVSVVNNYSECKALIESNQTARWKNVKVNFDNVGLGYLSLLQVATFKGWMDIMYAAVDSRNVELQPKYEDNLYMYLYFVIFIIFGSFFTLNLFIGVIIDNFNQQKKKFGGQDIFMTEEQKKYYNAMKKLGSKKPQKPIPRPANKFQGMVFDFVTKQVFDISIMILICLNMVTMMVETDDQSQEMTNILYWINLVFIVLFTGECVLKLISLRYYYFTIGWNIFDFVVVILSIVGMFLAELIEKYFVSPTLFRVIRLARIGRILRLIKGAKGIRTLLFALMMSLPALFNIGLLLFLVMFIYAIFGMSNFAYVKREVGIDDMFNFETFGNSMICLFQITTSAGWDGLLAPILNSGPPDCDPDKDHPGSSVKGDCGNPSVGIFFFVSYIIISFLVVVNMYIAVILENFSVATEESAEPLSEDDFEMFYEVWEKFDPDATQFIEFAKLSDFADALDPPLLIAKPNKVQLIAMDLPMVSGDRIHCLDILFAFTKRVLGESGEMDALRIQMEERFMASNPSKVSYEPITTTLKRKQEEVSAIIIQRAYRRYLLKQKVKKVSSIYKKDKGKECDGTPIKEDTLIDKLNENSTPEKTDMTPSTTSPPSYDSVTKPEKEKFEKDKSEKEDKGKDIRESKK

With `CCCCCc1cc(O)c(C/C=C(\C)CCC=C(C)C)c(O)c1C(=O)O` [CBGA, cannabigerolic acid] the “Slope (Hill slope coefficient)” value ([1]; NaV1.1 concentration-response) was 2.6 ± 0.5, the IC50 ([1]; NaV1.1 peak current, 0.1–100 µM, 5 min exposure) was 13.6 ± 1.1 µM and the “Slope (Hill slope coefficient)” value ([2]; NaV1.2 concentration-response) was 2.2 ± 0.4. For the same compound, the IC50 ([2]; NaV1.2 peak current, 0.1–100 µM, 5 min exposure) was 14.7 ± 1.1 µM, the “Slope (Hill slope coefficient)” value ([3]; NaV1.6 concentration-response) was 2.3 ± 0.6 and the IC50 ([3]; NaV1.6 peak current, 0.1–100 µM, 5 min exposure) was 12 ± 1.2 µM. For the same compound, the “Slope (Hill slope coefficient)” value ([4]; NaV1.7 concentration-response) was 2.5 ± 0.4, the IC50 ([4]; NaV1.7 peak current, 0.1–100 µM, 5 min exposure) was 16.4 ± 1.1 µM and the “Inactivation △ V0.5 inact” value ([5]; SSFI) was −5.5 ± 2.1* mV. For the same compound, the “Inactivation △ slope factor” value ([5]; SSFI) was 1.3 ± 0.5*, the “Activation △ Slope factor” value [5] was 1.1 ± 0.2*** and the “Activation △ V0.5 act” value [5] was 4.6 ± 1.7* mV. For the same compound, the “Inactivation △ τinact SSFI at 5 mV” value [5] was 0.3 ± 0.06***, the IC50 [6] was 12 to 16.4 µM and the “Effect against hyperthermia-induced seizures” value [7] was “anti-convulsant properties”. For the same compound, the “Effect on spontaneous seizures” value [8] was “proconvulsive effects” and the “Effect in 6-Hz acute seizure model” value [9] was “proconvulsive effects”.

Source: paper PMC9986306, “Beyond CBD: Inhibitory effects of lesser studied phytocannabinoids on human voltage-gated sodium channels” (Frontiers in Physiology, 2023)
